Source: patent US20260174875A1 (Novo Nordisk A/S, priority 2023, published 2026)
Read-outs that look alike come from different tables or passages of the source. Numbered stars: 1 amine (or outer) side, 2 acyl side, 3 side chain; on linkers, the order of the positions; unused ones are H or OH. Square brackets hold non-standard residues; d marks the D form. Side chains are listed from the residue outwards. * marks the point of attachment. C20 diacid = O=C(O)CCCCCCCCCCCCCCCCCCC(=O)*; C18 diacid = O=C(O)CCCCCCCCCCCCCCCCC(=O)*; C16 diacid = O=C(O)CCCCCCCCCCCCCCC(=O)*; γGlu = O=C(O)[C@H](CCC(=O)[*:2])N[*:1]; AEEA = NCCOCCOCC(=O)O; Aib = CC(C)(N)C(=O)O

What was measured:
[1] = Pharmacokinetic study in minipigs (i.v.); assay type: in vivo, Göttingen minipigs; conditions: female, Göttingen, minipig, plasma, iv; i.v. administration to minipigs, 2 nmol/kg; read-out: Terminal half-life t1/2 (converted)
Procedure: This is done in a pharmacokinetic (PK) study, where the terminal half-life (t1/2) of the compound or derivative in question is determined. By terminal half-life is meant the time it takes to halve a certain plasma concentration in the terminal elimination phase.
Female Göttingen minipigs, obtained from Ellegaard Göttingen Minipigs (Dalmose, Denmark), approximately 8-12 months of age and weighing approximately 20-30 kg were used in the studies.
After three weeks of acclimatisation two permanent central venous catheters were implanted in vena cava caudalis in each animal. The animals were allowed at least 10 days recovery after the surgery and were then used for repeated pharmacokinetic studies with a suitable wash-out period between successive dosing.
The compounds of the invention were formulated (40 nmol/ml) in the following vehicle: 8 mM phosphate; 250 mM glycerol; 0.007% polysorbate 20, pH 7.4.
Blood samples (for example 1.3 ml) were collected in EDTA (1.3 ml tube containing K3EDTA to yield 1.6 mg K3EDTA/ml blood) coated tubes and then centrifuged at 4° C. and 2000×g for 10 minutes.
Plasma was within 30 min after centrifugation pipetted into Micronic tubes stored on dry ice and were afterwards kept at −20° C. until analysed for plasma concentration of the compounds using LCMS.
Plasma concentrations of the peptides of the invention were assayed by plasma protein precipitation and analysed by liquid chromatography mass spectrometry (LC-MS). Calibrators were prepared by spiking blank plasma from minipigs with the compounds in the typical range from 0.05 to 200 nM. […] The supernatant was diluted with 1 volumes of Milli-Q water containing 1% Formic acid before injection on the LC-MS system. Individual plasma concentration-time profiles were analysed by a non-compartmental pharmacokinetic method (NCA) in Phoenix v. 6.4 (Pharsight Inc., Mountain View, CA, USA), and the resulting terminal half-lives (harmonic mean) determined. The LC-MS analysis was carried out using a TurboFlow HPLC system from Thermo Fisher Scientific (Bremen, Germany) coupled to either a Q Exactive Orbitrap or Altis Triple Quadrupole (TQ) Mass Spectrometer. […] The Orbitrap mass spectrometer were operating in positive ionization mode with a spray voltage of 4.0 kV using Parallel Reaction Monitoring scan mode using 5 m/z isolation windows on the most abundant charge state of the compounds with a resolution of 35K on the Orbitrap MS.
The data was processed using the Quan Browser in the Xcalibur software from Thermo Fisher Scientific (Bremen, Germany) by fitted the data to linear calibration curves (weighed 1/x^2), used for calculating the concentration in the plasma samples. Quality control samples were included.

[2] = Chemical stability assessment in formulation (UPLC-UV-MS purity loss at 37° C.); assay type: physicochemical; conditions: 8 mM phosphate buffer pH 7.4, 1 mg/mL, 2 weeks
Summary of the method: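 Degradation tracked by UPLC-UV-MS (formic acid/acetonitrile gradient) on samples drawn over 2 weeks at 37° C. Solutions were made at a 1 mg/mL target in 8 mM phosphate, pH 7.4, kept in sealed vials and frozen after sampling.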

[3] = biological target: T1, human GLP-1 receptor (hGLP-1R) (Homo sapiens, UniProt P43220); test: GLP-1 receptor assay, method B (CRE-luciferase reporter, BHK cells, 384-well); assay type: cell-based
T1 construct: expressed in transfected cells
Procedure: To assess how the activation of the receptors is potentially influenced by the presence of human serum albumin (HSA), the in vitro assays were performed in the absence of HSA and presence of 1% (w/v) HSA.
Cells at approximately 80-90% confluence were washed once in PBS (Gibco 14190-094) and loosened from the cell flasks with Versene (Gibco, 15040-033). […] Cells were aliquoted and stored at −180° C. until use.
The assay buffer consisted of DMEM without phenol red (Gibco, 11880-028) supplemented with 1× GlutaMAX (Gibco, 35050-038), 10 mM HEPES (Gibco, 15630-056), 1% (w/v) ovalbumin (Sigma, A5503) and 0.1% (v/v) Pluronic F-68 (Gibco, 24040-032) either with HSA or without HSA (Sigma, A9511).
Serial dilutions were transferred to a 384-well assay plate (PerkinElmer/Revvity, 6007688) and mixed with an equal volume (10 μL) of assay buffer without or with 3% (w/v) HSA (Sigma, A-9511). Frozen stocks of hGLP-1R BHK Cre-Luc cells were thawed in a 37° C. water bath, washed once in PBS (Gibco 14190-094), diluted to 1.5×10^5 (1.5E+5) cells/mL in assay buffer (without HSA) and added (10 μL) to each well of the 384-well assay plate. After a short centrifugation, the assay plates were incubated for 3 hours at 37° C. in 5% CO2 and let to equilibrated at room temperature for 10 minutes before the addition of 30 μL steadylite Plus™ PerkinElmer/Revvity, 6066759) per well. Plates were sealed and incubated at room temperature with gentle shaking for 30 minutes while protected from light. Luminescence was detected on a luminescence plate reader e.g. a Synergy 2 (BioTek).

[4] = biological target: T2, human amylin receptor (hAMYR3) (Homo sapiens, UniProt O60896+P30988); test: Amylin receptor assay, method B (CRE-luciferase reporter, BHK cells); assay type: cell-based
T2 construct: host or cells: BHK cells (Hollex-1 line expressing hCTR(a) and CRE-Luc), further transfected with human RAMP3
Summary of the method: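 BHK cells with CRE-luciferase, co-expressing hAMYR3 and transfected with human RAMP3, seeded overnight, then exposed 3 h at 37 °C to compound. Buffer: phenol red-free DMEM, 10 mM HEPES, 1% ovalbumin, with 0% or 1% (w/v) HSA. Luminescence read after 30 min with steadylite Plus.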

T2 sequence (P30988 25-474): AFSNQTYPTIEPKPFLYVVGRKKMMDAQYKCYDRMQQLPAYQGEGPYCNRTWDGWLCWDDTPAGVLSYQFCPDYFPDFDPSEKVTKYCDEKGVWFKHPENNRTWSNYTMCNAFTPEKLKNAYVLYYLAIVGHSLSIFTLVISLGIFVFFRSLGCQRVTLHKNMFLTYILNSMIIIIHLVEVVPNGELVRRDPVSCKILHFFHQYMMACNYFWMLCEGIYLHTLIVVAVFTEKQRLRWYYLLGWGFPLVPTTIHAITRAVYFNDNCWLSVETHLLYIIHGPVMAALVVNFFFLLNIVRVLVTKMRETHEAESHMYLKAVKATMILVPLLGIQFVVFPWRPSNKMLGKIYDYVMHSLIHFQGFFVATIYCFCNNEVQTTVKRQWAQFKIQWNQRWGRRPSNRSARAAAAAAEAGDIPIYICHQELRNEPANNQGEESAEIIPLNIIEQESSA
T2 sequence (O60896 24-148): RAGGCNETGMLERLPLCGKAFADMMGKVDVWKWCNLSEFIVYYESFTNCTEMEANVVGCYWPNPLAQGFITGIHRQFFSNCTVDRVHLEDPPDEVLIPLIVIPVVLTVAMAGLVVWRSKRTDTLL
T1 sequence (P43220 24-463): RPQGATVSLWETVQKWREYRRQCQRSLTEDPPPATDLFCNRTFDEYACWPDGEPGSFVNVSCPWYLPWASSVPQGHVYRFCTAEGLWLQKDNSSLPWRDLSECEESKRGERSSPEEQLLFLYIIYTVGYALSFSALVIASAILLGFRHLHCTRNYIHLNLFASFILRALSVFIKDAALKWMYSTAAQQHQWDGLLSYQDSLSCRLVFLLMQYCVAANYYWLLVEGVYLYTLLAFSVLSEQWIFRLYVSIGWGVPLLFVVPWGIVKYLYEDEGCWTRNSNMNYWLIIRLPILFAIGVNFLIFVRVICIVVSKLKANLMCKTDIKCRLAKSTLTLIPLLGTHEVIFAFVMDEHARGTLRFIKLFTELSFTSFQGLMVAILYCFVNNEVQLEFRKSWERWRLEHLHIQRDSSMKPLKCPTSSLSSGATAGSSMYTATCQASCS

## H[Aib]HGTFTSDYSILLEEQAAREFIEWLLAGGPSK([AEEA-AEEA-γGlu-C16 diacid])GAPPPSGGGEASELSTAALGRLSAELHELATLPRTETGSGSP-NH2 [Compound 12]
[1]
  half-life: 81 h
[2]
  Purity loss per week at 37° C.: 5.6%

## H[Aib]HGTFTSDYSILLEEQAAREFIEWLLAGGPSK([AEEA-AEEA-γGlu-C16 diacid])GAPPPSGGGEASHLSTAQTARLSAELHRLADLPRTETGSGSP-NH2 [Compound 61]
[1]
  half-life: 61 h
[2]
  Purity loss per week at 37° C.: 2.0%

## H[Aib]HGTFTSDYSILLEEQAAREFIEWLLAGGPSK([AEEA-AEEA-γGlu-C16 diacid])GEASELSTAALGRLSAELHRLATLPRTETGSGSP-NH2 [Compound 17]
[2]
  Purity loss per week at 37° C.: 4.2%

## H[Aib]HGTFTSDYSILLEEQAAREFIEWLLAGGPSK([AEEA-AEEA-γGlu-C16 diacid])GEASQLSTAALGRLSAELHRLADLPRTETGSGSP-NH2 [Compound 62]
[2]
  Purity loss per week at 37° C.: 3.0%

## H[Aib]HGTFTSDYSILLEEQAAREFIEWLLAGGPSK([AEEA-AEEA-γGlu-C18 diacid])GAPPPSGGGEASELSTAALGRLSAELHELATLPRTETGSGSP-NH2 [Compound 15]
[1]
  half-life: 122 h
[2]
  Purity loss per week at 37° C.: 3.8%

## H[Aib]HGTFTSDYSILLEEQAAREFIEWLLAGGPSK([AEEA-AEEA-γGlu-C18 diacid])GAPPPSGGGEASHLSTAQTARLSAELHQLATLPRTETGSGSP-NH2 [compound 101]
[1]
  half-life: 122 h

## H[Aib]HGTFTSDYSILLEEQAAREFIEWLLAGGPSK([AEEA-AEEA-γGlu-C18 diacid])GEASQLSTAALGRLSAELHQLATLPRTETGSGSP-NH2 [Compound 64]
[1]
  half-life: 117 h
[2]
  Purity loss per week at 37° C.: 3.3%

## H[Aib]HGTFTSDYSILLEEQAAREFIEWLLAGGPSK([AEEA-AEEA-γGlu-C18 diacid])GEASQLSTAALGRLSAELHTLATLPRTETGSGSP-NH2 [Compound 63]
[2]
  Purity loss per week at 37° C.: 3.7%

## H[Aib]HGTFTSDYSILLEEQAAREFIEWLLAGGPSK([AEEA-AEEA-γGlu-C20 diacid])GAPPPSGGGEASELSTAALGRLSAELHELATLPRTETGSGSP-NH2 [Compound 16]
[1]
  half-life: 138 h

## H[Aib]HGTFTSDYSILLEEQAAREFIEWLLAGGPSSGAGQAPGQAPGASHLSTAQTQRLSAELHRLK([AEEA-AEEA-γGlu-C18 diacid])TLPRTETGSGSP-NH2 [Compound 91]
[1]
  half-life: 43 h
[2]
  Purity loss per week at 37° C.: 2.8%

## H[Aib]HGTFTSDYSILLEEQAAREFIEWLLAGGPSSGAGQAPGQAPGASHLSTAQTQRLSAK([AEEA-AEEA-γGlu-C18 diacid])LHRLATLPRTETGSGSP-NH2 [Compound 78]
[2]
  Purity loss per week at 37° C.: 3.5%

## H[Aib]HGTFTSDYSILLEEQAAREFIEWLLAGGPSSGAGQAPGQAPLASHLSTAQTQRLSAELHK([AEEA-AEEA-γGlu-C18 diacid])LATLPRTETGSGSP-NH2 [Compound 93]
[1]
  half-life: 69 h
[2]
  Purity loss per week at 37° C.: 2.8%

## Y[Aib]EGTFTSDYSILLEEQAAREFIEWLLAGGPSK([AEEA-AEEA-γGlu-C16 diacid])GEASELSTAALGRLSAELHELATLPRTETGSGSP-NH2 [Compound 11]
[1]
  half-life: 119 h

## Y[Aib]EGTFTSDYSILLEEQAAREFIEWLLAGGPSK([AEEA-AEEA-γGlu-C18 diacid])GEASHLSTAQTARLSAELHELATLPRTETGSGSP-NH2 [Compound 35]
[2]
  Purity loss per week at 37° C.: 0.3%

## Y[Aib]EGTFTSDYSILLEEQAAREFIEWLLAGGPSRGEASHLSTAQTQRLSAELHK([AEEA-AEEA-γGlu-C18 diacid])LATLPRTETGSGSP-NH2 [compound 68]
[1]
  half-life: 125 h

## Y[Aib]EGTFTSDYSILLEEQAAREFIEWLLAGGPSSGAGQAPGQAPGASHLSTAALGRLSAELHK([AEEA-AEEA-γGlu-C18 diacid])LATLPRTETGSGSP-NH2 [Compound 53]
[2]
  Purity loss per week at 37° C.: 0.8%

## Y[Aib]EGTFTSDYSILLEEQAAREFIEWLLAGGPSSGAGQAPGQAPGASHLSTAQTQRLSAELHK([AEEA-AEEA-γGlu-C18 diacid])LATLPRTETGSGSP-NH2 [compound 52]
[1]
  half-life: 120 h

## Y[Aib]EGTFTSDYSILLEEQAAREFIEWLLAGGPSSGAGQAPGQAPGASHLSTAQTQRLSAELHK([AEEA-AEEA-γGlu-C20 diacid])LATLPRTETGSGSP-NH2 [Compound 115]
[3]; hGLP-1R Potency, 1% HSA, EC50, methods B, in the presence of 1% HSA
  EC50: 0.0929 nM
[3]; method B, absence of HSA, read-out: hGLP-1R Potency, no HSA, EC50
  EC50: 0.0194 nM
[4]; hAMYR3 Potency, 1% HSA, EC50, methods B, in the presence of 1% HSA
  EC50: 0.551 nM
[4]; method B, absence of HSA, read-out: hAMYR3 Potency, no HSA, EC50
  EC50: 0.00713 nM
[1]
  half-life: 115 h
[2]
  Purity loss per week at 37° C.: 1.1%

## Y[Aib]EGTFTSDYSILLEEQAAREFIEWLLAGGPSSGAGQAPGQAPGASHLSTAQTQRLSAELHRLATLPK([AEEA-AEEA-γGlu-C18 diacid])TETGSGSP-NH2 [Compound 57]
[1]
  half-life: 90 h
[2]
  Purity loss per week at 37° C.: 0.2%

## Y[Aib]EGTFTSDYSILLEEQAAREFIEWLLAGGPSSGAGQAPGQAPGASHLSTAQTQRLSAELHRLK([AEEA-AEEA-γGlu-C18 diacid])TLPRTETGSGSP-NH2 [Compound 56]
[2]
  Purity loss per week at 37° C.: 0.6%

## Y[Aib]EGTFTSDYSILLEEQAAREFIEWLLAGGPSSGAGQAPGQAPGASHLSTAQTQRLSAK([AEEA-AEEA-γGlu-C18 diacid])LHRLATLPRTETGSGSP-NH2 [compound 55]
[1]
  half-life: 88 h

## Y[Aib]EGTFTSDYSILLEEQAAREFIEWLLAGGPSSGAGQAPGQAPLASHLSTAQTQRLSAELHK([AEEA-AEEA-γGlu-C18 diacid])LATLPRTETGSGSP-NH2 [compound 58]
[1]
  half-life: 97 h

## Y[Aib]EGTFTSDYSILLEEQAAREFIEWLLAGGPSSGEASHLSTAQTQRLSAELHK([AEEA-AEEA-γGlu-C18 diacid])LATLPRTETGSGSP-NH2 [Compound 50]
[2]
  Purity loss per week at 37° C.: 0.7%

## Y[Aib]EGTFTSDYSILLEEQAAREFIEWLLAGGPSSGEASHLSTAQTQRLSAELHRLK([AEEA-AEEA-γGlu-C18 diacid])TLPRTETGSGSP-NH2 [Compound 80]
[2]
  Purity loss per week at 37° C.: 0.8%

## Y[Aib]EGTFTSDYSILLEEQAAREFIEWLLAGGPSSGEASHLSTAQTQRLSAK([AEEA-AEEA-γGlu-C18 diacid])LHRLATLPRTETGSGSP-NH2 [Compound 79]
[2]
  Purity loss per week at 37° C.: 1.3%
